Data taken from article PMC11416286 (Heliyon, 2024).

Biological target: Aβ (1-42) (Homo sapiens, UniProt P05067)
Experiment: Thioflavin T fluorescence anti-aggregation assay with […] Aβ
Type: biochemical

Chain of Aβ (1-42) (P05067 672-713): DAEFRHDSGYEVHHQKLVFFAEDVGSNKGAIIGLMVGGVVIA

IC50: 8.01 ± 0.5 µM
Compound: O=c1oc2c(O)c(O)cc3c(=O)oc4c(O)c(O)cc1c4c23 [EA, Ellagic acid]
